Experimental data as given in patent publication US6891069B1, “Synthesis of 4-substituted phthalaldehyde” (Ethicon, Inc., priority 2004, dated 2005).
Structures can show the parent of a compound that is named as a salt. Where two headings read alike, the source gives them in different places.

Experiments:
[1] = tested on: Mycobacterium terrae bacteria; assay: bacterial suspension test; assay type: cell-based; conditions: for Germicidal Efficacy: summary Table 14
Description: In Examples 1 to 3, which follow, several germicidal solutions containing either the 4-fluoro-, 4-chloro-, or 4-bromo-phthalaldehyde compound were tested to determine their effectiveness in killing at least 1×10^6/mL of Mycobacterium terrae bacteria using a bacterial suspension test. The bacterial suspension test that was employed is described in Section VII.
The solutions were prepared by adding the appropriate amounts of the germicidal compounds to an aqueous solution. Unless otherwise mentioned all concentrations reported herein are expressed in (w/v)%. The pH of the solution was not adjusted. The tests were conducted at a temperature of about 20° C. (room temperature). The results are presented in terms of log reductions/mL. It is understood that these examples, as well as the other examples herein, are to be construed as merely illustrative, and not limiting.
In this test method, 9 mL of the germicide to be tested is placed in a tube, put into a water bath and allowed to come to the desired temperature. One mL of the test organism, including at least 7 logs/mL of Mycobacterium terrae bacteria, is added to the 9 mL of the germicide to be tested. […] It will be appreciated by those skilled in the art that other concentrations may be utilized by proper dilution and accounting.
At appropriate time intervals, 1 mL aliquots of the germicide-cell suspension were removed and added directly into 9 mL of a 1% glycine solution (neutralizer) and mixed thoroughly to neutralize the germicide in the transferred suspension. The glycine solution was prepared from solid glycine, which is available from VWR Scientific Products, among others. The above-identified 10 mL neutralized solution was then poured through a membrane filter having an average pore size of 0.45 micrometers. The filter was then rinsed twice with at least 150 mL of the 1% glycine solution per rinse. The filter was then placed on an agar plate and incubated for twenty-one days at 37° C. In the above procedure, if dilution was needed, then the 1 mL germicidal-cell suspension was diluted in 99 mL of a phosphate buffer before addition to the 9 mL of the 1% glycine solution. The phosphate buffer was DiLu-LoK™ Butterfields Phosphate Buffer, available from Hardy Diagnostics, of Santa Maria, Calif.
The surviving colonies are then counted. The data is plotted as S/So vs. time. So is the initial count of the bacteria in the above 10 mL solution which is at least 10^6 bacteria/mL, and S is the surviving bacteria from the above filter on the agar plate. The results of the experiments were presented in terms of log reductions. Log reduction is the difference between log(So) and log(S). As one example, if log(So)=6.2, and if there were 100 survivors, then the log(S)=2, and the log reduction was reported as 4.2.

[2] = solubility in water; conditions: for Concentration, Saturated: saturated aqueous germicidal solution, pH not adjusted

4-pyridinyl-propanedial
Log Reductions/mL ([1]; Saturated (˜2.3% w/v), 5 min, 20° C.): 4.0 log reductions/mL
Concentration, Saturated [2]: (˜2.3%) w/v %

O=CC(c1ccccc1)C(O)S(=O)(=O)[O-].[Na+] (stereo not shown) [1-hydroxy-3-oxo-2-phenyl-propane-1-sulfonic acid, sodium salt]
Log Reductions/mL ([1]; 0.6%, 20° C., 60 min, sodium salt): Total Kill
Log Reductions/mL ([1]; 2.5%, 20° C., 10 min, sodium salt): Total Kill
Log Reductions/mL ([1]; 2.5%, 20° C., 30 min): Total Kill
Log Reductions/mL ([1]; 9.4%, 20° C., 30 min): Total Kill
log reduction at 0.6 % ([1]; Mycolicibacter terrae, 0.25 h, 0.6%, 20° C., 15 min, read-out: Log Reductions/mL): 2.4
log reduction at 0.6 % ([1]; Mycolicibacter terrae, 0.5 h, 0.6%, 20° C., 30 min, read-out: Log Reductions/mL): 3.5

O=CC(c1nc2ccccc2o1)C(O)S(=O)(=O)O (stereo not shown) [2-benzooxazol-2-yl-1-hydroxy-3-oxo-propane-1-sulfonic acid, sodium salt]
log reduction at 11.1 % ([1]; Mycolicibacter terrae, 1 h, 11.1%, 20° C., 60 min, read-out: Log Reductions/mL): 5

O=CC(C=O)c1cccc(C(=O)O)c1[N+](=O)[O-] [3-(1-formyl-2-oxoethyl)-2-nitro-benzoic acid]
Concentration, Saturated [2]: (˜2.1%) w/v %

O=Cc1ccc(Br)cc1C=O [4-bromo-phthalaldehyde]
Log Reductions/mL ([1]; 0.1%, 20° C., 30 minutes): Total Kill
log reduction at 0.1 % ([1]; Mycolicibacter terrae, 10 min, 0.1%, 20° C., 10 minutes, read-out: Log Reductions/mL): 5.6

O=Cc1ccc(Cl)cc1C=O [4-chloro-phthalaldehyde]
Log Reductions/mL ([1]; 2.7 w/v % in 20% isopropanol, 20° C., 5 min): Total Kill
log reduction at 0.2 % ([1]; Mycolicibacter terrae, 5 min, 0.2 w/v %, 20° C., 5 min, read-out: Log Reductions/mL): 5.9

O=Cc1ccc(F)cc1C=O [4-fluoro-phthalaldehyde]
Log Reductions/mL ([1]; 0.25%, 20° C., 60 minutes): Total Kill
log reduction at 0.25 % ([1]; Mycolicibacter terrae, 0.5 h, 0.25%, 20° C., 30 minutes, read-out: Log Reductions/mL): 5.6

O=Cc1ccccc1C(O)S(=O)(=O)[O-].[Na+] (stereo not shown) [(2-formyl-phenyl)-hydroxy-methane sulfonic acid, sodium salt]
Log Reductions/mL ([1]; 9.1%, 20° C., 5 min, listed as (2-formyl-phenyl)-hydroxy-methane sulfonate, sodium salt): confluent
Log Reductions/mL ([1]; 9.1%, 20° C., 5 min, listed as H-SULF, sodium salt): Confluent
log reduction at 8.9 % ([1]; Mycolicibacter terrae, 0.5 h, 20° C., 30 min, read-out: Log Reductions/mL): 2
log reduction at 8.9 % ([1]; Mycolicibacter terrae, 1 h, 20° C., 60 min, read-out: Log Reductions/mL): 3.5
log reduction at 8.9 % ([1]; Mycolicibacter terrae, 2 h, 20° C., 120 min, read-out: Log Reductions/mL): 5.7

O=Cc1cccc(C=O)c1 [IPA, isophthalaldehyde, reference compound]
Log Reductions/mL ([1]; 0.3%, dissolved in 20% isopropanol, 20° C., 5 min (Table 11)): Confluent
Log Reductions/mL ([1]; 0.3%, dissolved in 20% isopropanol, 20° C., 5 min (Table 15)): Confluent
Germicidal Efficacy [1]: Poor

O=Cc1ccccc1C=O [OPA, phthalaldehyde]
log reduction at 0.08 % ([1]; Mycolicibacter terrae, 0.5 h, 0.08%, 20° C., 30 min, read-out: Log Reductions/mL): 3.1
log reduction at 0.1 % ([1]; Mycolicibacter terrae, 0.5 h, 0.10%, 20° C., 30 min, read-out: Log Reductions/mL): 3.4
log reduction at 0.14 % ([1]; Mycolicibacter terrae, 0.5 h, 0.14%, 20° C., 30 min, read-out: Log Reductions/mL): 5.8
Germicidal Efficacy [1]: Good
solubility in water [2]: about 5 % by weight

O=Cc1ccc(C=O)cc1 [TPA, terephthaladehyde, reference compound]
Log Reductions/mL ([1]; 0.2%, dissolved in 20% isopropanol, 20° C., 5 min): Confluent
Germicidal Efficacy [1]: Poor

O=CC(C=O)c1ccccc1 [phenyl-propanedial]
Log Reductions/mL ([1]; 0.4%, 20° C., 60 min): Total Kill
Log Reductions/mL ([1]; 0.7%, 20° C., 15 min): Total Kill
kill ([1]; 1% solution, 5 minutes, 20° C.): more than 4 logs
log reduction at 0.3 % ([1]; Mycolicibacter terrae, 1 h, 0.3%, 20° C., 60 min, read-out: Log Reductions/mL): 3.7
log reduction at 0.33 % ([1]; Mycolicibacter terrae, 1 h, 0.33%, 20° C., 60 min, read-out: Log Reductions/mL): 3.7
solubility in water [2]: about 1%
